Among the data in a melting point compilation (Tetko et al.; mined from patent text by program, amines drawn as free bases though some values may be those of a salt) are melting point values, retold here.

Where only a bound is given, the exact number is not on record here.

The molecule `Cc1ccc(OCc2c(F)cccc2Cl)c(NC(=S)Nc2ccc(Cl)cc2)n1` displayed a melting point of 204 to 205 °C. As for `CCN(CC)C(=O)c1cc(-c2ccc(Cl)cc2)nc2ccc(Cl)cc12`, the melting point worked out at 130 °C. In the case of `CS(=O)(=O)c1ccc(C(Cc2ccccc2)C(=O)Nc2nc3ccccc3o2)cc1` (stereo unspecified) it was 118 to 119 °C; in that of `O=C(O)c1cc(Oc2ccc(Br)cc2)cc(C(=O)O)c1`, 310 to 320 °C. Turning to `O=[N+]([O-])c1cc(Cl)cnc1N1CCN(C/C=C/c2ccc(C(F)(F)F)cc2)CC1`, the melting point is 129 to 132 °C.

With `CCN1c2ncc(C3(c4ccccc4)CO3)cc2C(=O)N(C)c2ccc(Cl)nc21` (stereo unspecified), the melting point was in the range of 105 to 107 °C. In the case of `Cc1ccc2c(-n3ccnc3)c(F)ccc2n1` it was 159 to 161 °C; in that of `Clc1nc2ccnn2c2ncccc12`, 160 °C; in that of `CCCCCNC(=O)c1ccc(Cl)nn1`, 98 to 101 °C.

Turning to `CCOC(=O)CCNC(=O)C(Cc1ccc(-c2ccccc2)cc1)N(CP(=O)(O)O)C(OC(=O)Cc1ccccc1)C(C)C` (stereo unspecified), the melting point was in the range of 148 to 150 °C. In the case of `COCCN1CCN(C(=O)c2ccc3n2Cc2ccccc2N(C(=O)c2ccc(-c4ccccc4C(F)(F)F)c(C)c2)C3)CC1` it was 140 to 144 °C; in that of `CC(O)c1ccc(O)c(Cl)n1` (stereo unspecified), 89 to 92 °C; in that of `CNS(=O)(=O)OCC(=O)N(c1c(C)ccc2ccccc12)C1CCOC1=O` (stereo unspecified), 190 to 194 °C.

On to `CC(C)(C)c1cc(OCC(=O)NN)cc(C(C)(C)C)c1O`, for which the melting point was 141 to 142 °C.

Regarding `COC(=O)c1ccc(Cl)cc1NC(=O)CSc1ccc([N+](=O)[O-])cc1`, the melting point lay in the range of 134 to 137 °C.

For the molecule `CCOc1ccc(F)cc1C(=O)c1sc2nc(C)c(C)cc2c1N`, the melting point amounted to 170 °C.

Regarding `N#Cc1ccc(CBr)c(C#N)c1`, the melting point is 106 °C.

On to `NC(=O)c1cc2ccccc2cc1NC(=S)NC(=O)c1ccccc1`, for which the melting point fell in the range of 220 to 223 °C. Regarding `COc1cc(C)c(Cl)cn1`, the melting point lay within 32 to 33 °C. `C=CCN1C(=O)C(C)(CN2CCN(c3ccccc3OC)CC2)N=C1c1cccnc1` (stereo unspecified): the melting point is 66 to 69 °C. `O=C1c2ccccc2C(=O)N1N1C2CCCCC21` (stereo unspecified) yielded a melting point of 75 to 77 °C. Turning to `O=C1CCCc2[nH]c3ccc(F)cc3c21`, the melting point fell in the range of 255 to 260 °C.

As to `Cn1ccnc1S(=O)(=O)CC(=O)C12CC3CC(CC(C3)C1)C2`, the melting point was in the range of 124 to 125 °C. As for `Cc1c(S(=O)(=O)N(O)C(=N)Nc2ccc(Cl)c(Cl)c2)sc2ccc(Cl)cc12`, the melting point fell in the range of 232 to 233 °C. Next, `C[C@H](Cc1ccc(O)c(O)c1)NC(=O)OC(C)(C)C`: 116 to 118 °C. For the molecule `Cc1ccc(-c2nc(-c3ccncc3)cs2)c(=O)[nH]1`, the melting point is > 300 °C.

As to `N#Cc1cc(-c2c[nH]nc2-c2ccc(F)cc2)ccn1`, the melting point stood at 209 °C. In the case of `CCOC(=O)C1CNC(=O)CC1c1ccc(F)cc1` (stereo unspecified) it was 116 to 120 °C; in that of `Cc1oc(-c2ccccc2)nc1COc1cccc(CSc2cccc(CC(=O)O)c2)c1`, 81 to 82 °C; in that of `COc1ccc(N2C(=O)C(O)C2c2ccccc2Cl)cc1` (stereo unspecified), 178 to 180 °C. The molecule `O=C(O)COc1ccc(C(=C2CCCCCC2)c2ccc(O)cc2)cc1` returned a melting point of 170 to 171 °C.

In turn, `CC(Nc1ccc(Oc2ccccc2)cc1)C(=O)O` (stereo unspecified) showed a melting point of 160 °C. In the case of `CCCCCCCCCCCCCCCCCC(=O)Nc1ccc(NC(=O)NS(=O)(=O)c2ccc(OC)cc2)cc1` it was 188 °C.

Take `C=CCc1ccc2oc(C(=O)c3ccc(OC)cc3)c(C)c2c1O`: the melting point fell in the range of 48 to 50 °C. In the case of `COc1ccc([C@@H]2Sc3cc(Cl)ccc3N(CCCCl)C(=O)[C@@H]2O)cc1` (relative stereo) it was 103 to 106 °C; in that of `CN(C)C(=O)Cc1nnc2n1-c1ccc(Cl)cc1C(c1ccccc1)=NC2`, 204 to 206 °C; in that of `COC(=O)c1ccc(C#Cc2ccc(OCC(O)CO)c(C34CC5CC(CC(C5)C3)C4)c2)cc1` (stereo unspecified), 202 to 203 °C. `CCOC(=O)Cc1csc(Sc2ccc(OCc3nc(-c4ccccc4)oc3C)cc2)n1` yielded a melting point of 95 to 96 °C. Take `c1cc(NC2=NCCS2)c2occc2c1`: the melting point lay within 143 to 145 °C. As to `O=C(O)CCCCC1SCc2[nH]c(=O)[nH]c21` (single isomer, unassigned; (-)), the melting point was 189 to 199 °C. `CCCCNC(=S)N1CCC(c2nc(-c3ccc(-c4ccccc4)cc3)c[nH]2)CC1` yielded a melting point of 102 to 103 °C. Next, `Nc1ccc(CCc2nc3ccccc3s2)cc1`: 79 to 81 °C; `CCOC(=O)COc1cc2c(c(Cl)c1Cl)C(=O)C(CC)C2` (stereo unspecified): 116 to 118 °C; `CN(Cc1cccc2c1C(=O)N(C1CCC(=O)NC1=O)C2=O)C(=O)NC(C)(C)C` (stereo unspecified): 188 to 190 °C. Next, `CCN(CC)C(=O)C(Cl)=C(Cl)C(=O)O`: 154 to 155 °C. Next, `CC1(O)CN(c2ccc([N+](=O)[O-])cc2F)C1`: 109 to 110 °C; `COP(=O)(OC)[C@@H](O)[C@H](CC1CCCCC1)NC(=O)[C@H](CC(C)C)NC(=O)CCc1ccccc1`: 157 °C. Take `Cc1ccc(C23CNCC2CC3=O)cc1` (stereo unspecified): the melting point fell in the range of 130 to 133 °C. For the molecule `CCCOc1cc(-c2c(C(=O)OCC)c(Cn3cnnc3)nc3cc(OC)c(OC)cc23)ccc1OC`, the melting point lay in the range of 154 to 155 °C.

In turn, `O=C(O)C(=NOCc1ccc(F)cc1)c1csc(NC(=O)C(F)(F)F)n1` returned a melting point of 180 to 182 °C. Next, `C=C(C)C(=O)OCCCCCCCCCCCOC(=O)c1cc(OC(=O)c2ccc(/C=C/C(=O)OC)cc2)ccc1O`: 51 °C; `CCCCCCCCc1ccc(C(=O)CBr)cc1`: 33 to 34 °C; `O=C(c1c[nH]c2cc(OCc3ccc(F)cc3)ccc12)C1CSC(c2cccnc2)N1` (stereo unspecified): 185 to 186 °C. `CCCc1c(S)ccc2c(=O)c(C(=O)OC)coc12`: the melting point fell in the range of 98 to 99 °C. Next, `CCN1C(=O)NC(Cc2c[nH]c3ccccc23)C1CCc1cc(C(F)(F)F)cc(C(F)(F)F)c1` (stereo unspecified): 228 to 230 °C; `Cn1c(C(F)(F)F)n[nH]c1=O`: 64 °C.

`CN1CCc2nc3ccc(Cl)cc3c(Nc3ccccc3)c2C1` registered a melting point of 137 to 139 °C. `Cc1ccc(S(=O)(=O)Nc2ccc(F)cc2)cc1` came in with a melting point of 78 to 79.5 °C.

`N#CCCNC(=O)c1cccc(-c2ccc3c(c2)N(Cc2ccc(Cl)c(Cl)c2)CC3)c1` came in with a melting point of 135 to 136 °C. Next, `C[C@@H](CO)Oc1ccc(-c2ccccc2)cc1`: 75 to 78 °C; `O=C(O)/C=C/C=C(c1ccccc1C(F)(F)F)c1ccccc1C(F)(F)F`: 162 to 164 °C; `CC(C)c1ccc2oc(=O)c(NC(=O)Nc3ccc(F)cc3F)c(-c3ccc(F)cc3)c2c1`: 216 to 217 °C. `COCC(=O)Nc1ccc2ncnc(Nc3cc(Cl)c(Cl)cc3F)c2c1` showed a melting point of 204 to 206 °C. In the case of `CC(C)NCC(O)COc1ccc(CCO)cc1` (stereo unspecified) it was 77 to 78 °C; in that of `CC(=O)Nc1cc(-c2c(-c3cccc(C)c3)nc3cccnn23)ccn1`, 227 to 228 °C. Regarding `Nc1sc2c(c1C(=O)c1ccccc1)CCNC2`, the melting point lay within 160 to 162 °C. In the case of `Nc1nc(Oc2ccc(O)cc2)nc2nc(-c3ccco3)nn12` it was 292 to 294 °C; in that of `Cc1c(CCl)oc2ccc([N+](=O)[O-])cc12`, 141 to 142 °C; in that of `CCOC(=O)C1(Cc2ccc(OC)c(OC)c2)C(=O)NCC1c1ccc2c(c1)OCO2` (stereo unspecified), 167 to 168 °C.

Turning to `CCC1CCCCN1C(=O)C=Cc1c(-c2ccccc2)nn2ccccc12` (stereo unspecified), the melting point fell in the range of 121 to 122 °C. For the molecule `CCOc1ccc(C=[N+]([O-])C2CCCCC2)cc1`, the melting point is 124 °C. In the case of `Cc1cccc(NS(=O)(=O)c2ccc(N3CCNC3=O)cc2)c1` it was 188 to 190 °C; in that of `CCc1cc2c(cc1CC)C(=O)C(O)=CC2=O`, 105 to 109 °C; in that of `COc1ccc2c(cc3n2CCCO3)n1`, 92 to 93 °C. In turn, `CC(C)[N+]([O-])=Cc1cccc(N)c1` yielded a melting point of 103 to 106 °C. Next, `CCOC(=O)Nc1c(C)c(C)c2c(c1C)CC(C)(C)O2`: 102 to 104 °C; `CON1CCC2(CC1)NC(=O)C(Cl)(c1cc(C)ccc1C)C2=O` (stereo unspecified): 142 to 144 °C.

On to `O=C(NCCO)c1cc(C(=O)NCCO)cc([N+](=O)[O-])c1`, for which the melting point was found to be 151 °C. As to `Nc1cc(Cl)nc(SC/C=C/C(=O)N2CCCC2)n1`, the melting point was 178 to 180 °C. Regarding `C#CC[C@H](c1nc2cccnc2c(=O)n1Nc1ccccc1)N(CCCNC(=O)OCc1ccccc1)C(=O)c1cccc(Cl)c1F`, the melting point fell in the range of 100 to 102 °C. Next, `CC(=O)NCc1ccc2c(c1)N(C1CCN(CCc3ccc(F)cc3)CC1)CC2`: 160 to 162 °C; `COC(=O)c1ccc2c(c1)CN(S(=O)(=O)c1ccc(C)cc1)C2`: 164 to 166 °C; `COc1cc2nc(N)nc(-c3ccc(Cl)cc3)c2cc1OC`: 248 to 250 °C. Next, `CCOC1=NC(N)=C(C(=O)OC)C(c2ccccc2F)C1C(=O)OC` (stereo unspecified): 180 °C; `Cc1ccc(-c2nc(CCCCCCOC(C)(C)C#N)c(C)o2)cc1`: 36 °C. Next, `CC(C)CCCC(C)CCOc1ccc2c(c1)[nH]c1ccccc12` (stereo unspecified): 188 °C.

As for `Cn1ccc(S(N)(=O)=O)n1`, the melting point fell in the range of 156 to 158 °C.

Consider `CS(=O)(=O)c1ccc(-c2cc(CCCO[N+](=O)[O-])nn2CC2CCCCC2)cc1`, for which the melting point fell in the range of 76 to 77 °C.

In turn, `CN(Cc1ccc(F)cc1)C1CCN(c2ccc([N+](=O)[O-])cc2)CC1` displayed a melting point of 89 to 90 °C. In the case of `CCCCCCCCCCC1(CCCCCCCCCC)c2cc(Br)ccc2-c2ccc(N(c3ccccc3)c3ccccc3)cc21` it was 66.8 to 69.2 °C.

Consider `CN(O)C(=O)c1ccc(C=Cc2ccccn2)cc1`, for which the melting point lay in the range of 135 to 138 °C.
